Data set [1] relates to HIV-1. The experiment in a line: Cell-based inhibition assay in transfected COS-1 cells, ELISA p24 capture assay of tissue culture media. Conditions: K21 100 μM, N20 20 μM, 24-hr treatment. The protocol:
COS-1 cells were seeded on twelve-well plates and grown in 1 ml of DMEM with 10% fbs and 1% Penicillin/Streptomycin. The following day, well were confluency was ˜60% were selected for co-transfection with an NL4-3 derived construct (pdeltaEnv) and pIIIEnv for expression of HIV-1 virus-encoded proteins. Inhibitor treatment was done on two sets of transfected cells: one, at 5 hr post-transfection and the other, at 24 hours post-transfection. In each case, the tissue culture media was removed and replaced with treatment Nedd4 inhibitor (100 μM final concentration for K21 and 20 μM final concentration for N20) or DMSO control (1% final concentration) in DMEM with 10% FBS, 1% Penicillin/Streptomycin, 5 mM MgCl2, and 0.5 mM CaCl2. After a 24-hr treatment period, the tissue culture media was collected, cleared of debris by running through a 0.45 um syringe filter and analyzed for amount of virus particles by Elisa p24 capture assay.
At 100 μM, K21 was inhibitory to virus particle release. […] This was true whether the inhibitor was added at 5 hrs post-transfection or at 24 hrs post transfection. At 20 μM, N20 was also exerted an inhibitory effect on virus particle release but it was different from that of K21.

The subject of another data set is COS-1 cells. The experiment in a line: Cell growth based on cell lysate actin levels (Western). The note with it: versus DMSO-treated. The protocol: The levels of actin of cell lysates prepared from DMSO-treated, […]-treated and N20-treated cells were determined by SDS-PAGE followed by Western analysis where the immunoblot were probed with mouse anti-actin antibody.

Data set [2] has as its system HIV-1. The data set can be described thus: Specific infectivity by MAGI assay. Format: cell-based. Conditions: versus DMSO controls. As to the method: The amount of infectious virus normalized to ng of p24 obtained from the ELISA assay in the tissue cultures was determined by multinuclear activation of a galactosidase indicator (MAGI) assay. In this assay, infectious unit is scored by the blue color that is assumed by infected MAGI cells (Hela cells that have been engineered to express the indicator when the infecting particle is able to simulated natural infection up until expression of HIV-1 Tat).

Data set [3] has as its system ASLV virus like particles (VLPs). The data set can be described thus: ASLV VLP release from 293 cells, Western blot with anti-ASLV Gag antibody. Format: cell-based. The note with it: FIG. 6A, compared with untreated cells. The protocol: 293/E cells were cultured in DMEM supplemented with 10% fetal bovine serum, penicillin (1,000 units/ml), and streptomycin (1,000 μg/ml) to 50% confluence at 37° C. Expression of plasmids from p2036 was high in 293/E cells because these cells stably express the EBNA1 protein of EBV and the p2036 constructs contain the EBV FR plasmid maintenance element that EBNA 1 binds. Therefore 293/E cells were used when proteins expressed from p2036 were to be detected by western analysis. In all experiments, 24-well plates of 293/E cells were transfected with 0.5 μg of p2036-ASLV Gag with the X-treme Gene9 transfection reagent (Roche Diagnostics, Alameda, Calif., USA) according to the manufacturer's instructions. After 24 h after DNA transfection, the cells were washed with 1×DPS that contained CaCl2 (0.1 mM) and MgCl2 (1 mM) [Gibco #14040-133], and 1 ml of cell culture medium (10% FBS, 1% Penicillin/Streptomycin) containing CaCl2 (0.5 mM) and MgCl2 (5 mM) was added. […]
For the budding assay, both media and cell lysate fractions were collected. […] After blocking of the membrane with wash buffer (10 mM Tris-HCl, pH 8.0, 150 mM NaCl, and 0.1% Tween 20) containing 5% nonfat dry milk, ASLV Gag proteins were detected with an AMV MA (p19) directed monoclonal antibody (mAb) and an anti-mouse IgG-HRP secondary antibody for ECL (Denville Scientific; Metuchen, N.J.).
A general note: In western blotting, separated proteins are transferred to a membrane and probed.

The subject of data set [4] is HIV-1. The experiment in a line: HIV-1 release from T-cells in culture, HIV-1 CA protein in media by ELISA. The note with it: T cells contacted with compound then infected with HIV-1. A general note: ELISA stands for enzyme-linked immunosorbent assay.
Description: These compounds were further evaluated as antiviral inhibitors of virus budding and release using the methods disclosed herein.
Where [5] appears, read: inhibitor added 5 hrs post-transfection.
The mark [6] stands for this setting: inhibitor added 24 hrs post-transfection.

Each structure is given as a SMILES string.

Consider `Cl.NC(CO)C(=O)NNCc1ccc(O)c(O)c1O` (racemic) [Benserazide Hydrochloride, (RS)-2-amino-3-hydroxy-N′-(2,3,4-trihydroxybenzyl) propanehydrazide hydrochloride], for which the “Amount of virus particle detected in tissue culture media” value in the data set on HIV-1 [1] (setting [5]) and with HIV-1 [1] (setting [6]) was “reduction in the amount of virus particle detected” throughout. Moreover, in the data set with COS-1 cells, the “Intensity of actin bands of cell lysates” value is given as “essentially comparable for all samples”. Moreover, the “Counts of blue cells per ng p24 (specific infectivity)” value with HIV-1 [2] is given as “comparable”. In addition, the “Release of ASLV VLPs from cells” value in data set [3] is recorded as “budding defect”. For the same compound, in the data set with HIV-1 [4], the “HIV-1 particle release (in words)” value is “significant reduction in HIV-1 particle release”.
Take `CN(C)[C@@H]1C(O)=C(C(N)=O)C(=O)[C@@]2(O)C(=O)C3=C(O)c4c(O)cccc4[C@@](C)(O)[C@H]3[C@H](O)[C@@H]12` [Oxytetracycline, (4S,4aR,5S,5aR,6S,12aS)-4-(dimethylamino)-3,5,6,10,11,12a-hexahydroxy-6-methyl-1,12-dioxo-1,4,4a,5,5a,6,12,12a-octahydrotetracene-2-carboxamide]: the “Amount of virus particle detected in tissue culture media” value is “reduction in the amount of virus particle detected” in the data set on HIV-1 [1] (setting [5]) and “reduction was not seen” in the data set with HIV-1 [1] (setting [6]). The “Intensity of actin bands of cell lysates” value with COS-1 cells is “essentially comparable for all samples”. The “Counts of blue cells per ng p24 (specific infectivity)” value in the data set on HIV-1 [2] is “comparable”. Further, the “Release of ASLV VLPs from cells” value in data set [3] was “budding defect”. For the same compound, the “HIV-1 particle release (in words)” value in the data set with HIV-1 [4] is reported as “significant reduction in HIV-1 particle release”.

(Values after patent US10765687B2, “Methods and compounds to inhibit enveloped virus release” (Northwestern University, priority 2012, dated 2020).)
